{"source": "patent US20110286998A1", "about": "“METHODS FOR TREATING AND PREVENTING CANCERS THAT EXPRESS THE HYPOTHALAMIC-PITUITARY-GONADAL AXIS OF HORMONES AND RECEPTORS” (Voyager Pharmaceutical Corporation, priority 2001, published 2011)", "key": {"[1]": {"system": "cancer cell lines", "assay_type": "cell-based", "protocol": "Cell growth assays were performed as described below. CaOV3 (ATCC HTB-75) cells were plated in Dulbecco's modified Eagle's medium with 4 mM L-glutamine, 1.5 g/L sodium bicarbonate, 0.1 mM non-essential amino acids, and 10% fetal bovine serum. H358 (ATCC CRL-5807) cells were plated in RPMI 1640 medium with 2 mM L-glutamine adjusted to contain 1.5 g/L sodium bicarbonate, 4.5 g/L glucose, 10 mM HEPES, 1.0 mM sodium pyruvate and 10% fetal bovine serum. H838 (ATCC CRL-5844) cells were plated in RPMI 1640 medium with 1.5 g/L sodium bicarbonate, 4.5 g/L glucose, 10 mM HEPES, 1.0 mM sodium pyruvate, 10 U/ml insulin and 10% fetal bovine serum. […]\nFor cell growth assays in a 96 well format, different numbers of cells were plated, depending on the cell line (about 2000 cells/well for CaOV3, about 250 cells/well for 786-O, about 500 cells/well for H838 and H358, about 5000 cells/well for T47D and […], about 1000 cells/well for HPAC, ACHN, HT-29, MCF-7 and about 300,000 cells/well for MV4-11). […] The number of cells in each group was measured by incubating cells with WST-8 (2-(2-methoxy-4-nitrophenyl)-3-(4-nitrophenyl)-5-(2,4-disulfophenyl)-2H-tetrazolium, monosodium salt) which produces a water soluble formazan dye that was detected by measuring optical density (at 450 nm) using a μQuant™ Universal Microplate Spectrophotometer (Bio-Tek® Instruments, Inc., Winooski, Vt.)."}, "[2]": {"conditions": "both, dog, in vivo, sc, 34 mg", "quoted_text": "FIG. 16 presents results of a pharmacokinetic study in which male and female dogs were either injected intramuscularly with a leuprolide depot formulation or implanted subcutaneously with a leuprolide implant formulation.\nSix dogs of each sex were dosed with 60 mg of Lupron Depot® by injection (males—X, females—▴) on day 1. Six dogs of each sex were dosed with single subcutaneous doses (males—▪, females—♦) of 3 DURIN™-Leuprolide 11.3 mg implants (total dose 34 mg) on day 1 and again on day 64. Serum leuprolide levels were determined and plotted against time out to 200 days."}, "[3]": {"system": "pituitary secretion of LH and FSH", "conditions": "cited from earlier work"}, "[4]": {"system": "testosterone", "conditions": "in vivo; cited from earlier work"}}, "data": [{"smiles": "CCNC(=O)[C@@H]1CCCN1C(=O)[C@H](CCCNC(=N)N)NC(=O)[C@H](CC(C)C)NC(=O)[C@@H](CC(C)C)NC(=O)[C@H](Cc1ccc(O)cc1)NC(=O)[C@H](CO)NC(=O)[C@H](Cc1c[nH]c2ccccc12)NC(=O)[C@H](Cc1c[nH]cn1)NC(=O)[C@@H]1CCC(=O)N1", "note": "[leuprolide acetate]", "values": [{"measurement": "effect on growth of cancer cell lines", "setting": "[1]", "value": "slows or inhibits growth in a dose dependent manner"}, {"measurement": "inhibition rates of cancer cell growth", "setting": "[1]; highest dose of leuprolide used in the studies", "value": "10-40%"}, {"measurement": "sustained serum levels of leuprolide acetate", "setting": "[2]", "value": "5.0 to 8.0", "unit": "ng/mL"}, {"measurement": "pituitary secretion of LH and FSH", "setting": "[3]; for several days after initial administration", "value": "increase"}, {"measurement": "LH and FSH secretion", "setting": "[3]; thereafter, pituitary GnRH receptors down-regulated", "value": "significant decrease"}, {"measurement": "serum concentrations required for testosterone suppression", "setting": "[4]", "value": "less than 1 ng/ml"}]}]}
